Experiments:
[1] = target: T1, soluble guanylate cyclase (sGC) isolated from bovine lung (Bos taurus, UniProt P16068+P19687); assay: Activation of the soluble guanylate cyclase (cGMP enzyme immunoassay); format: biochemical; details: n-fold stimulation of basal enzyme activity = [cGMP]test substance/[cGMP]control
T1 construct: The sGC which was employed had been isolated from bovine lung; from tissue; host or cells: bovine lung
T1 sequence (P16068 1-619): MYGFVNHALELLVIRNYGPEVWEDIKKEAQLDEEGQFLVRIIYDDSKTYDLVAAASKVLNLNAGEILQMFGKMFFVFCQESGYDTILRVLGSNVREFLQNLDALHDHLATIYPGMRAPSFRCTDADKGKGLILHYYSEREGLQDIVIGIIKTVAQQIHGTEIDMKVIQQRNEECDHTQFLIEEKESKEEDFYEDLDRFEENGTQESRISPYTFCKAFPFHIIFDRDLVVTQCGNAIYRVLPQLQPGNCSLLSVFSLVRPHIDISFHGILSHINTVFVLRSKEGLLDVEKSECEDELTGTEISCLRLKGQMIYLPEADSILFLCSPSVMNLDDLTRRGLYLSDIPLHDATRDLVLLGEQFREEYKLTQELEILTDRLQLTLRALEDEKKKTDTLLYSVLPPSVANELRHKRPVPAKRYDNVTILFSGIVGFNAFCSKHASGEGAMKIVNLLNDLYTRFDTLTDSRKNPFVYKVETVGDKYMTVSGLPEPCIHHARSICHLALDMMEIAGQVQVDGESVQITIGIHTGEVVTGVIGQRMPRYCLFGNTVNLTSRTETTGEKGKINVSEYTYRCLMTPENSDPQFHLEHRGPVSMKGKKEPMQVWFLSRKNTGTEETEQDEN
T1 sequence (P19687 1-691): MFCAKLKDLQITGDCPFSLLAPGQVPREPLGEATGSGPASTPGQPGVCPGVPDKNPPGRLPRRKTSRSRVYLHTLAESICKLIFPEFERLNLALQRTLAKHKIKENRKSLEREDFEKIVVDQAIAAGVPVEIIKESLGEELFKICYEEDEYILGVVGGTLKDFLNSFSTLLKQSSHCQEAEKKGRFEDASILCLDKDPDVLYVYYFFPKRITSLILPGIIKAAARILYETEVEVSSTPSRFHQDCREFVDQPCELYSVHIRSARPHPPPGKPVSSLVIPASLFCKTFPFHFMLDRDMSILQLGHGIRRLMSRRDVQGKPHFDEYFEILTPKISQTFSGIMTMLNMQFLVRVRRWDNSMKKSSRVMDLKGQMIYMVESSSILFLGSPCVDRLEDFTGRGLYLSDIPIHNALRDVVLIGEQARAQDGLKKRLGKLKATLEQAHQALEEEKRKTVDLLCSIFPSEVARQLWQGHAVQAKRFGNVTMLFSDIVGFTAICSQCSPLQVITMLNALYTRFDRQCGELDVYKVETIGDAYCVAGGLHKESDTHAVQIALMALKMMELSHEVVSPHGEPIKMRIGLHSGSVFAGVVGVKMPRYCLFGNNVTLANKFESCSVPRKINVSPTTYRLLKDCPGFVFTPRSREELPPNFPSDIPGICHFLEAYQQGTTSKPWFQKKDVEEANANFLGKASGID
Experimental: 1. Activation of the Soluble Guanylate Cyclase
The activation of the sGC, which catalyzes the conversion of GTP into cyclic guanosine monophosphate cGMP and pyrophosphate, by the compounds according to the invention was quantified with the aid of an enzyme immunoassay “EIA” from Amersham. For this purpose the substances to be tested were initially incubated with sGC in microtiter plates, and the amount of the cGMP formed was then determined.
The test solutions (100 μl per well) contained 50 mM triethanolamine “TEA” buffer (pH 7.5), 3 mM MgCl2, 3 mM reduced glutathione “GSH,” 0.1 mM GTP, 1 mM 3-isobutyl-1-methylxanthine “IBMX,” suitably diluted enzyme solution and the substance to be tested or, in the control experiments, the solvent. […] The DMSO concentration in the test solution was 5% (v/v). The reaction was initiated by addition of the sGC. The reaction mixture was incubated at 37° C. for 15 to 20 minutes and then stopped by ice-cooling and addition of the stop reagent (50 mM EDTA, pH 8.0). An aliquot of 50 μl was taken and used for determining the cGMP content using the acetylation protocol of the Amersham cGMP-EIA kit. The absorption of the samples was measured at 450 nm (reference wavelength 620 nm) in a microtiter plate reader. The cGMP concentration was determined using a standard curve which was obtained under the same test conditions. […] This is calculated using the formula: n-fold stimulation=[cGMP]test substance/[cGMP]control.

rat aorta rings = assay: Relaxation of rat aorta (phenylephrine-precontracted aorta rings, organ bath); design: species or system rat (Wistar-Kyoto); details: concentration by which phenylephrine (1 μM) contraction is inhibited by 50% (50% relaxation)
Description: 2. Relaxation of Rat Aorta
For this test, normotensive male Wistar-Kyoto rats were sacrificed by a blow to the neck. The abdominal cavity and the thorax were opened by a medium sternotomy. The descending aorta was subsequently removed, freed of connective tissue and divided into 8 rings of a length of approximately 4 mm. The tip of a pair of tweezers was introduced into the lumen of 4 of the 8 rings. The endothelium was removed by carefully rolling the rings over the tip of the pair of tweezers. All 8 aorta rings (4 with endothelium and 4 without endothelium) were subsequently suspended in an organ bath (Schuler-Organbad; Hugo Sachs Elektronik) at a constant temperature of 37° C. for the isometric determination of the contractile tone. For 30 minutes, the rings were calibrated at a resting tension of 1 g in carbonated (95% O2; 5% CO2) Krebs-Henseleit solution (composition: Na^+ 144.0 mM; K^+ 5.9 mM; Cl^− 126.9 mM; Ca^2+ 1.6 mM; Mg^2+ 1.2 mM; H2PO4^− 1.2 mM; SO4^2− 1.2 mM; HCO3^− 25.0 mM; D-glucose 11.1 mM) of pH 7.4. […] After a 30-minute washing period, the rings were then again precontracted by addition of phenylephrine (1 μM), and the relaxing action of the test substances of the formula I was determined by administration of cumulative doses of the latter. The data were evaluated by standard methods. […]

Row | melting point | SMILES | further results
1 | 165 °C | O=C(NC1CCCCC1)c1ccc(-c2nn(Cc3ccccc3)c3ccccc23)o1 [Example 33, 1-Benzyl-3-(5-(N-cyclohexylcarbamoyl)-2-furyl)indazole] | –
2 | 113 to 124 °C | O=C(NCc1ccccc1)c1ccc(-c2nn(Cc3ccccc3)c3ccccc23)o1 [Example 34, 1-Benzyl-3-(5-(N-benzylcarbamoyl)-2-furyl)indazole] | –
3 | 130 °C | CN(C)CCNC(=O)c1ccc(-c2nn(Cc3ccccc3)c3ccccc23)o1 [Example 35, 1-Benzyl-3-(5-(N-(2-dimethylaminoethyl)carbamoyl)-2-furyl)indazole] | –
4 | 119 to 127 °C | CC(C)N(CCNC(=O)c1ccc(-c2nn(Cc3ccccc3)c3ccccc23)o1)C(C)C [Example 36, 1-Benzyl-3-(5-(N-(2-diisopropylaminoethyl)carbamoyl)-2-furyl)indazole] | –
5 | 219 to 222 °C | NC(=O)CNC(=O)c1ccc(-c2nn(Cc3ccccc3)c3ccccc23)o1 [Example 37, 1-Benzyl-3-(5-(N-(carbamoylmethyl)carbamoyl)-2-furyl)indazole] | –
6 | 160 °C | O=C(NCc1ccccn1)c1ccc(-c2nn(Cc3ccccc3)c3ccccc23)o1 [Example 38, 1-Benzyl-3-(5-(N-(2-pyridylmethyl)carbamoyl)-2-furyl)indazole] | –
7 | 138 to 139 °C | OC(c1ccccc1)c1ccc(-c2nn(Cc3ccccc3)c3ccccc23)o1 (stereo not shown) [Example 43, 1-Benzyl-3-(5-(1-hydroxy-1-phenylmethyl)-2-furyl)indazole] | –

Continued, compound first:

Row | SMILES | melting point | further results
8 | O=C(O)c1ccc(-c2nn(-c3cc(C(F)(F)F)cc(C(F)(F)F)c3)c3ccccc23)o1 [Example 4, 3-(5-Carboxy-2-furyl)-1-(3,5-bis(trifluoromethyl)phenyl)indazole] | 256 to 257 °C | –
9 | CCOC(=O)c1ccc(-c2nn(-c3cc(C(F)(F)F)cc(C(F)(F)F)c3)c3ccccc23)o1 [Example 5, 3-(5-Ethoxycarbonyl-2-furyl)-1-(3,5-bis(trifluoromethyl)phenyl)indazole] | 128 to 129 °C | –
10 | OCc1ccc(-c2nn(-c3cc(C(F)(F)F)cc(C(F)(F)F)c3)c3ccccc23)o1 [Example 6, 3-(5-Hydroxymethyl-2-furyl)-1-(3,5-bis(trifluoromethyl)phenyl)indazole] | 136 to 138 °C | n-fold stimulation ([1]; concentration 10 μM): 3.3-fold
11 | O=C(OCCO)c1ccc(-c2nn(Cc3ccccc3)c3ccccc23)o1 [Example 7, 1-Benzyl-3-(5-((2-hydroxyethoxy)carbonyl)-2-furyl)indazole] | – | n-fold stimulation ([1]; concentration 100 μM): 5.5-fold
12 | O=C(Nc1ccccc1)c1ccc(-c2nn(Cc3ccccc3)c3ccccc23)o1 [Example 21, 1-Benzyl-3-(5-(N-phenylcarbamoyl)-2-furyl)indazole] | 138 to 143 °C | n-fold stimulation ([1]; concentration 100 μM): 3-fold
13 | O=C(Nc1ccc(Cl)cc1)c1ccc(-c2nn(Cc3ccccc3)c3ccccc23)o1 [Example 22, 1-Benzyl-3-(5-(N-(4-chlorophenyl)carbamoyl)-2-furyl)indazole] | 202 to 205 °C | –
14 | O=C(Nc1ccc([N+](=O)[O-])cc1)c1ccc(-c2nn(Cc3ccccc3)c3ccccc23)o1 [Example 23, 1-Benzyl-3-(5-(N-(4-nitrophenyl)carbamoyl)-2-furyl)indazole] | 204 to 208 °C | –
15 | O=C(Nc1ccc2ccccc2c1)c1ccc(-c2nn(Cc3ccccc3)c3ccccc23)o1 [Example 24, 1-Benzyl-3-(5-(N-(2-naphthyl)carbamoyl)-2-furyl)indazole] | 167 °C | –
16 | O=C(Nc1nccs1)c1ccc(-c2nn(Cc3ccccc3)c3ccccc23)o1 [Example 25, 1-Benzyl-3-(5-(N-(2-thiazolyl)carbamoyl)-2-furyl)indazole] | 167 to 168 °C | n-fold stimulation ([1]; concentration 10 μM): 2.8-fold
17 | O=C(NOCc1ccccc1)c1ccc(-c2nn(Cc3ccccc3)c3ccccc23)o1 [Example 26, 1-Benzyl-3-(5-(N-(benzyloxy)carbamoyl)-2-furyl)indazole] | 140 to 143 °C | –
18 | CN(C(=O)c1ccc(-c2nn(Cc3ccccc3)c3ccccc23)o1)c1ccccc1 [Example 27, 1-Benzyl-3-(5-(N-methyl-N-phenylcarbamoyl)-2-furyl)indazole] | 190 °C | –
19 | COc1ccc(NC(=O)c2ccc(-c3nn(Cc4ccccc4)c4ccccc34)o2)cc1 [Example 28, 1-Benzyl-3-(5-(N-(4-methoxyphenyl)carbamoyl)-2-furyl)indazole] | 175 °C | –
20 | O=C(Nc1ccccc1O)c1ccc(-c2nn(Cc3ccccc3)c3ccccc23)o1 [Example 29, 1-Benzyl-3-(5-(N-(2-hydroxyphenyl)carbamoyl)-2-furyl)indazole] | 196 to 197 °C | –
21 | CC(C)NC(=O)c1ccc(-c2nn(Cc3ccccc3)c3ccccc23)o1 [Example 31, 1-Benzyl-3-(5-(N-isopropylcarbamoyl)-2-furyl)indazole] | 156 °C | –
22 | CCCNC(=O)c1ccc(-c2nn(Cc3ccccc3)c3ccccc23)o1 [Example 32, 1-Benzyl-3-(5-(N-(n-propyl)carbamoyl)-2-furyl)indazole] | 152 °C | –
23 | CNC(=O)c1ccc(-c2nn(Cc3ccccc3)c3ccccc23)o1 [Example 40, 1-Benzyl-3-(5-(N-methylcarbamoyl)-2-furyl)indazole] | – | n-fold stimulation ([1]; concentration 100 μM): 2.4-fold; IC50 (rat aorta rings; Ring with endothelium): 2400 nM; IC50 (rat aorta rings; Ring without endothelium): 200 nM

From patent US7300950B2, “Pyrazole derivatives, their preparation and their use in pharmaceuticals” (Aventis Pharma Deutschland GmbH, priority 1997, dated 2007)
